According to PubChem BioAssay (NCI):
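Cultured in 96-well plates, cells were exposed to test compound for 48 hours across five concentrations. GI50: concentration for 50% inhibition of growth. TGI marks complete inhibition of growth.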

What was measured:
Assay in all cases: NCI tumour cell line growth inhibition, 48 h
786-0 renal = test system: 786-0 renal
A498 renal = test system: A498 renal
ACHN renal = test system: ACHN renal
BT-549 breast = test system: BT-549 breast
CAKI-1 renal = test system: CAKI-1 renal
CCRF-CEM leukemia = test system: CCRF-CEM leukemia
COLO 205 colon = test system: COLO 205 colon
DU-145 prostate = test system: DU-145 prostate
EKVX NSCLC = test system: EKVX NSCLC
HCC-2998 colon = test system: HCC-2998 colon
HCT-116 colon = test system: HCT-116 colon
HCT-15 colon = test system: HCT-15 colon
HL-60(TB) leukemia = test system: HL-60(TB) leukemia
HOP-62 NSCLC = test system: HOP-62 NSCLC
HOP-92 NSCLC = test system: HOP-92 NSCLC
HS 578T breast = test system: HS 578T breast
HT29 colon = test system: HT29 colon
K-562 leukemia = test system: K-562 leukemia
KM12 colon = test system: KM12 colon
LOX IMVI melanoma = test system: LOX IMVI melanoma
M14 melanoma = test system: M14 melanoma
MALME-3M melanoma = test system: MALME-3M melanoma
MCF7 breast = test system: MCF7 breast
MDA-MB-231 breast = test system: MDA-MB-231 breast
MDA-MB-435 = test system: MDA-MB-435
MOLT-4 leukemia = test system: MOLT-4 leukemia
NCI-H226 lung = test system: NCI-H226 lung
NCI-H23 lung = test system: NCI-H23 lung
NCI-H460 lung = test system: NCI-H460 lung
NCI-H522 lung = test system: NCI-H522 lung
NCI/ADR-RES ovarian = test system: NCI/ADR-RES ovarian
OVCAR-3 ovarian = test system: OVCAR-3 ovarian
OVCAR-4 ovarian = test system: OVCAR-4 ovarian
OVCAR-5 ovarian = test system: OVCAR-5 ovarian
OVCAR-8 ovarian = test system: OVCAR-8 ovarian
PC-3 prostate = test system: PC-3 prostate
RPMI-8226 leukemia = test system: RPMI-8226 leukemia
RXF 393 renal = test system: RXF 393 renal
SF-268 CNS = test system: SF-268 CNS
SF-295 CNS = test system: SF-295 CNS
SF-539 CNS = test system: SF-539 CNS
SK-MEL-2 melanoma = test system: SK-MEL-2 melanoma
SK-MEL-5 melanoma = test system: SK-MEL-5 melanoma
SK-OV-3 ovarian = test system: SK-OV-3 ovarian
SN12C renal = test system: SN12C renal
SNB-19 CNS = test system: SNB-19 CNS
SNB-75 CNS = test system: SNB-75 CNS
SW-620 colon = test system: SW-620 colon
T-47D breast = test system: T-47D breast
TK-10 renal = test system: TK-10 renal
U251 CNS = test system: U251 CNS
UACC-257 melanoma = test system: UACC-257 melanoma
UACC-62 melanoma = test system: UACC-62 melanoma
UO-31 renal = test system: UO-31 renal

In the case of `CCn1cc(C(=O)N/N=C/c2ccc(Br)cc2)c(=O)c2cc(F)c(N3CCNC(C)C3)c(F)c21` (stereo not drawn), the GI50 (786-0 renal) is reported as 1680 nM, the TGI (786-0 renal) is reported as 3210 nM and the GI50 (A498 renal) is reported as 1780 nM. The TGI (A498 renal) was 5300 nM, the GI50 (ACHN renal) was 1690 nM and the TGI (ACHN renal) was 3060 nM. The GI50 (BT-549 breast) was 1590 nM, the TGI (BT-549 breast) was 3230 nM and the GI50 (CAKI-1 renal) was 1680 nM. For the same compound, the TGI (CAKI-1 renal) was 3080 nM, the GI50 (CCRF-CEM leukemia) was 1490 nM and the TGI (CCRF-CEM leukemia) was 3520 nM. For the same compound, the GI50 (COLO 205 colon) was 1760 nM, the TGI (COLO 205 colon) was 3420 nM and the GI50 (DU-145 prostate) was 1740 nM. The TGI (DU-145 prostate) was 3180 nM, the GI50 (EKVX NSCLC) was 1590 nM and the TGI (EKVX NSCLC) was 3110 nM. It also gave a GI50 (HCC-2998 colon) of 1880 nM, a TGI (HCC-2998 colon) of 3570 nM and a GI50 (HCT-116 colon) of 1540 nM. It also gave a TGI (HCT-116 colon) of 3160 nM, a GI50 (HCT-15 colon) of 1440 nM and a TGI (HCT-15 colon) of 2930 nM. For the same compound, the GI50 (HL-60(TB) leukemia) was 1880 nM, the TGI (HL-60(TB) leukemia) was 3800 nM and the GI50 (HOP-62 NSCLC) was 1720 nM. For the same compound, the TGI (HOP-62 NSCLC) was 3170 nM, the GI50 (HOP-92 NSCLC) was 1210 nM and the TGI (HOP-92 NSCLC) was 2580 nM. The GI50 (HS 578T breast) was 1990 nM, the TGI (HS 578T breast) was 5900 nM and the GI50 (HT29 colon) was 1680 nM. The TGI (HT29 colon) was 3180 nM, the GI50 (K-562 leukemia) was 1500 nM and the TGI (K-562 leukemia) was 3170 nM. For the same compound, the GI50 (KM12 colon) was 1860 nM, the TGI (KM12 colon) was 3500 nM and the GI50 (LOX IMVI melanoma) was 1750 nM. For the same compound, the TGI (LOX IMVI melanoma) was 3250 nM, the GI50 (M14 melanoma) was 1910 nM and the TGI (M14 melanoma) was 3590 nM. The GI50 (MALME-3M melanoma) was 1780 nM, the TGI (MALME-3M melanoma) was 3420 nM and the GI50 (MCF7 breast) was 1560 nM. It also gave a TGI (MCF7 breast) of 3130 nM, a GI50 (MDA-MB-231 breast) of 1840 nM and a TGI (MDA-MB-231 breast) of 3370 nM. For the same compound, the GI50 (MDA-MB-435) was 1730 nM, the TGI (MDA-MB-435) was 3150 nM and the GI50 (MOLT-4 leukemia) was 1680 nM. It also gave a TGI (MOLT-4 leukemia) of 3470 nM, a GI50 (NCI-H226 lung) of 2150 nM and a TGI (NCI-H226 lung) of 6130 nM. The GI50 (NCI-H23 lung) was 1840 nM, the TGI (NCI-H23 lung) was 3540 nM and the GI50 (NCI-H460 lung) was 1610 nM. It also gave a TGI (NCI-H460 lung) of 3160 nM, a GI50 (NCI-H522 lung) of 1850 nM and a TGI (NCI-H522 lung) of 3550 nM. It also gave a GI50 (NCI/ADR-RES ovarian) of 1950 nM, a TGI (NCI/ADR-RES ovarian) of 3690 nM and a GI50 (OVCAR-3 ovarian) of 1790 nM. It also gave a TGI (OVCAR-3 ovarian) of 3380 nM, a GI50 (OVCAR-4 ovarian) of 2480 nM and a TGI (OVCAR-4 ovarian) of 7540 nM. For the same compound, the GI50 (OVCAR-5 ovarian) was 1730 nM, the TGI (OVCAR-5 ovarian) was 3220 nM and the GI50 (OVCAR-8 ovarian) was 1740 nM. The TGI (OVCAR-8 ovarian) was 3320 nM, the GI50 (PC-3 prostate) was 1620 nM and the TGI (PC-3 prostate) was 3140 nM. It also gave a GI50 (RPMI-8226 leukemia) of 1850 nM, a TGI (RPMI-8226 leukemia) of 3820 nM and a GI50 (RXF 393 renal) of 1630 nM. The TGI (RXF 393 renal) was 3070 nM, the GI50 (SF-268 CNS) was 1780 nM and the TGI (SF-268 CNS) was 3450 nM. For the same compound, the GI50 (SF-295 CNS) was 1850 nM, the TGI (SF-295 CNS) was 3510 nM and the GI50 (SF-539 CNS) was 1690 nM. It also gave a TGI (SF-539 CNS) of 3100 nM, a GI50 (SK-MEL-2 melanoma) of 2020 nM and a TGI (SK-MEL-2 melanoma) of 4100 nM. For the same compound, the GI50 (SK-MEL-5 melanoma) was 1940 nM, the TGI (SK-MEL-5 melanoma) was 4030 nM and the GI50 (SK-OV-3 ovarian) was 1930 nM. For the same compound, the TGI (SK-OV-3 ovarian) was 3680 nM, the GI50 (SN12C renal) was 1570 nM and the TGI (SN12C renal) was 3010 nM. It also gave a GI50 (SNB-19 CNS) of 1700 nM, a TGI (SNB-19 CNS) of 3080 nM and a GI50 (SNB-75 CNS) of 1570 nM. It also gave a TGI (SNB-75 CNS) of 2990 nM, a GI50 (SW-620 colon) of 1710 nM and a TGI (SW-620 colon) of 3180 nM. The GI50 (T-47D breast) was 1650 nM, the TGI (T-47D breast) was 3470 nM and the GI50 (TK-10 renal) was 1740 nM. For the same compound, the TGI (TK-10 renal) was 3170 nM, the GI50 (U251 CNS) was 1660 nM and the TGI (U251 CNS) was 3120 nM. The GI50 (UACC-257 melanoma) was 1680 nM, the TGI (UACC-257 melanoma) was 3210 nM and the GI50 (UACC-62 melanoma) was 1880 nM. The TGI (UACC-62 melanoma) was 3360 nM, the GI50 (UO-31 renal) was 1560 nM and the TGI (UO-31 renal) was 2920 nM.
